# Marks after values point to notes of the source that are not given here.
# Key:
# [1] = system: sterol 14-reductase (Δ14R); details: AY 0.1 μM, cultured rat hepatocytes; cited from earlier work
# [2] = system: mouse cumulus enclosed oocytes; assay: Induction of resumption of meiosis in mouse cumulus enclosed oocytes exposed to AY9944-A-7; assay type: cell-based
# Description: Immature female C57BI/2J B6D2 mice (11-15 g) were stimulated with exogenous gonadotropins (7.5 IU per mouse; Gonadoplex, Leo, Ballerup, Denmark). Forty-eight hours after injection with gonadotropins, the mice were sacrificed and the ovaries removed. Cumulus enclosed oocytes (CEO) were recovered by puncturing individual follicles and collected in a culture medium (a-MEM, Gibco, BRL) supplemented with 3 mg/ml bovine serum albumin, 5 mg/ml human serum albumin, 2 mM L-glutamine, 100 IU/ml penicillin, 100 μg/ml streptomycin and 4 mM hypoxanthine (control medium).
# Induction of resumption of meiosis in mouse cumulus enclosed oocytes exposed to an inhibitor of sterol Δ14-reductase (AY9944-A-7) during culture.
# Oocytes from 10-15 mice were pooled and randomly divided into the different test groups. The tests were performed using 4-well dishes (Nunclon, Roskilde, Denmark) each well containing 20-50 oocytes in 400 μl culture medium. Each dish had one well serving as control and the three other wells as tests.
# All test media were prepared using HX-medium. AY9944-A-7 (AY) was kindly provided by Wyeth-Ayerst, Princeton, N.J., USA. AY has no structural similarities to MAS. Stock solutions of AY9944 in water were stored at −20° C., and was added directly to the HX-medium immediately prior to oocyte culture. AY was used in concentrations from 0.2 to 25 μM.
# [3] = system: mouse cumulus enclosed oocytes; assay: Resumption of meiosis (GVBD) in mouse cumulus enclosed oocytes exposed to Amphotericin B; assay type: cell-based
# Description: Amphotericin B is a medical product used against fungal infections by inhibiting cholesterol biosynthesis. It has no structural similarities to MAS. Its effect on resumption of meiosis was tested on mouse cumulus enclosed oocytes, in vitro. Ovarian stimulation was performed on immature female mice and the cumulus enclosed oocytes (CEO) isolated as described in Example 3.
# Cumulus enclosed oocytes were cultured separately in 4-well dishes (Nuncleon, Roskilde, Denmark), 0.4 ml medium in each well containing control medium or medium supplemented with Amphotericin B (Bristol-Myers Squibb) in a 100% humidified atmosphere of 5% CO2 with 95% air at 37° C.
# The effect of Amphotericin in concentrations of 0.6 and 1.2 μg/ml was evaluated after 22 hours in culture.
# In another series of experiments, i.e. priming of CEO, the culture period with Amphotericin, priming period, varied from 5 min. to 240 min. in test medium with 1.2 μg/ml Amphotericin. After the priming period, the CEO were transferred to control medium and the culture continued for a total of 22 hours.
# By the end of the culture period, germinal […] breakdown (GVBD) was scored by examining the oocyte in an inverted microscope. The percentage of oocytes with GVBD per total number of oocytes (% GVBD) was calculated.
# [4] = system: mouse cumulus enclosed oocytes; assay: Resumption of meiosis (GVBD) of mouse oocytes cultured in vitro with FSH and/or EGF; assay type: cell-based; details: EGF 0.5 ng/ml, 22-24 h, HX-medium
# Description: Immature female mice (B6D2-F1 strain C57B1/2J) were kept under controlled light and temperature conditions with free access to food and water. […] The percentage of oocytes with GVBD per total number of oocytes (% GVBD) was calculated.
compound,measurement,setting,value
"Cl.Cl.Clc1ccccc1CNCC1CCC(CNCc2ccccc2Cl)CC1 (stereo not shown) [AY, AY9944-A-7]",Mode of action on Δ14R,[1],competitive inhibitor
same,Oocyte maturation of CEO (FIG. 2),[2]; AY 0.2 to 25 μM in HX-medium,stimulates oocyte maturation of CEO in a dose-dependent way
same,GVBD compared to the controls (FIG. 2),"[2]; AY 5, 10 and 25 μM, p<0.05, p<0.001 and p<0.001",increase GVBD significantly
"C[C@@H]1[C@H](O)[C@@H](C)/C=C/C=C/C=C/C=C/C=C/C=C/C=C/[C@H](O[C@@H]2O[C@H](C)[C@@H](O)[C@H](N)[C@@H]2O)C[C@@H]2O[C@](O)(C[C@@H](O)C[C@@H](O)[C@H](O)CC[C@@H](O)C[C@@H](O)CC(=O)O[C@H]1C)C[C@H](O)[C@H]2C(=O)O [Amfotericin, Amphotericin B]",% GVBD,"[3]; 0.6 μg/ml, 22 hours in culture, 94 oocytes",28%
same,No. of GVBD,"[3]; 0.6 μg/ml, 22 hours in culture, of 94 oocytes",26
same,% GVBD,"[3]; 1.2 μg/ml priming 5 minutes, then control medium to 22 hours, 98 oocytes",21%
same,No. of GVBD,"[3]; 1.2 μg/ml priming 5 minutes, then control medium to 22 hours, of 98 oocytes",21
same,% GVBD,"[3]; 1.2 μg/ml priming 10 minutes, then control medium to 22 hours, 88 oocytes",29%
same,No. of GVBD,"[3]; 1.2 μg/ml priming 10 minutes, then control medium to 22 hours, of 88 oocytes",26
same,% GVBD,"[3]; 1.2 μg/ml priming 30 minutes, then control medium to 22 hours, 116 oocytes",36%
same,No. of GVBD,"[3]; 1.2 μg/ml priming 30 minutes, then control medium to 22 hours, of 116 oocytes",42
same,% GVBD,"[3]; 1.2 μg/ml priming 120 minutes, then control medium to 22 hours, 50 oocytes",50%
same,No. of GVBD,"[3]; 1.2 μg/ml priming 120 minutes, then control medium to 22 hours, of 50 oocytes",25
same,% GVBD,"[3]; 1.2 μg/ml priming 240 minutes, then control medium to 22 hours, 49 oocytes",69%
same,No. of GVBD,"[3]; 1.2 μg/ml priming 240 minutes, then control medium to 22 hours, of 49 oocytes",34
same,% GVBD,"[3]; 1.2 μg/ml, 22 hours in culture, 121 oocytes",76%
same,No. of GVBD,"[3]; 1.2 μg/ml, 22 hours in culture, of 121 oocytes",92
EGF: epidermal growth factor,% GVBD,[4]; 68 oocytes,"31^c,d %"
same,No. of GVBD,[4]; of 68 oocytes,21

# — patent US20050175976A1, “Meiosis activating sterol augments implantation rate” (priority 1999, published 2005)
